Paper PMC8198049, “Synthesis and Evaluation of the Tetracyclic Ring-System of Isocryptolepine and Regioisomers for Antimalarial, Antiproliferative and Antimicrobial Activities” (Molecules, 2021)
In brackets after ≈: the same amount, converted by molar mass. Structures can show the parent of a compound that is named as a salt. Where two headings read alike, the source gives them in different places.

What was measured:
[1] = Cytotoxicity assay (resazurin-based viability); assay type: cell-based; details: human, HEK293 cells, mean ± standard deviation, two separate experiments
Experimental: Fluorescence was measured using an EnSight plate reader (PerkinElmer, Waltham, MA, USA).

[2] = Antiplasmodial imaging assay; assay type: cell-based, Plasmodium falciparum; details: human (HEK293) and Plasmodium falciparum (3D7)
Experimental: (§1) Compounds tested in the antiproliferative assays were tested in 11 dilution points (0.02 µM–40 µM or 0.04 µM–80 µM).
(§2) Antiplasmodial activity was determined as previously described by Duffy and Avery. […] After incubation, plates were stained with 4’,6-diamidino-2-phenylindole (DAPI) in a permeabilization buffer for 5 h at rt in the dark. Plates were imaged on the Opera confocal microplate image reader (PerkinElmer).

[3] = tested on: Plasmodium falciparum 3D7 strain; experiment: Antiplasmodial imaging assay; assay type: cell-based; details: P. falciparum 3D7, 72 h, mean ± standard deviation, two separate experiments; for IC50: Plasmodium falciparum
Experimental: as §1, §2

[4] = tested on: MDA-MB-231 (human breast adenocarcinoma); experiment: Antiproliferative assay (resazurin); assay type: cell-based; details: for IC50: Homo sapiens, MDA-MB-231, 72 h compound incubation, mean ± sem, two separate experiments; for % at 80 µM (printed in MDA-MB-231 IC50 column): MDA-MB-231, 80 µM
Experimental: (§3) Compounds tested in the antiproliferative assays were tested in 11 dilution points (0.02 µM–40 µM or 0.04 µM–80 µM). […] HCT116 cells were maintained in McCoy’s 5A media (Life Technologies, CA, USA), MDA-MB-231 cells were cultured in DMEM media (Life Technologies) with 10 mM HEPES (Life Technologies), whilst PC-3 cells were maintained in RPMI media (Life Technologies). All media were supplemented with 10% heat-inactivated fetal bovine serum (Australian source; Corning, CA, USA) and all cells were incubated at 37 °C in a humidified incubator with 5% CO2. Cells were seeded in 384-well plates (Greiner Bio-One, NC, USA) using the respective complete media. After 24 h cell seeding, compounds were added and antiproliferative activity was determined using the resazurin assay after 72 h compound incubation. Briefly, cells were incubated with 60 µM resazurin (Cayman, MI, USA) for 6 h at 37 °C and fluorescence signals were measured using a microplate reader (EnSight, PerkinElmer, Waltham, MA, USA).

[5] = tested on: HCT116 (human colon cancer); experiment: Antiproliferative assay (resazurin); assay type: cell-based; details: for IC50: Homo sapiens, HCT-116, 72 h compound incubation, mean ± sem, two separate experiments
Experimental: as §3

[6] = tested on: PC-3 (human prostate cancer); experiment: Antiproliferative assay (resazurin); assay type: cell-based; details: for IC50: Homo sapiens, 72 h compound incubation, mean ± sem, two separate experiments; for % at 40 µM (PC-3): PC-3, 40 µM; for % at 80 µM (PC-3): PC-3, 80 µM
Experimental: as §3

[7] = tested on: S. aureus (ATCC 25923); experiment: Bacterial growth inhibition assay; assay type: cell-based, Staphylococcus aureus; details: Staphylococcus aureus, ATCC25923
Experimental: (§4) The prepared samples were tested for in vitro antimicrobial activity against E. faecalis, E. coli, P. aeruginosa, S. aureus, Streptococcus agalactiae and S. epidermis using gentamycin as a reference compound.
(§5) To determine and quantify antimicrobial activity, a bacteria growth inhibition assay in liquid media was executed. Compounds 2–3, 4, 8–10, 13–14, 16, 18, and 20 were tested against Staphylococcus aureus (ATCC 25923), Escherichia coli (ATCC 259233), Enterococcus faecialis (ATCC 29122), Pseudomonas aeruginosa (ATCC 27853) and Streptococcus agalactiae (ATCC 12386); all strains from LGC Standards (Teddington, UK). S. aureus, E. coli, and P. aeruginosa were grown in Muller Hinton broth (275730, Becton, Franklin Lakes, NJ, USA). E. faecalis and S. agalactiae were cultured in brain hearth infusion broth (53286, Sigma, St Louise, MO, USA). Fresh bacterial colonies were transferred in the respective medium and incubated at 37 °C overnight. The bacterial cultures were diluted to a culture density representing the log phase and µL/well were pipetted into a 96-well microtiter plate (734–2097, NunclonTM, Thermo Scientific, Waltham, MA, USA). The final cell density was 1500–15.000 colony forming units/well. The compound was diluted in 2% (v/v) DMSO in ddH2O, providing a final assay concentration of 50% of the prepared sample, since 50 µL of sample in DMSO/water were added to 50 µL bacterial culture. After adding the samples to the plates, they were incubated overnight at 37 °C and the growth was determined by measuring the optical density at λ = 600 nm (OD600) with a 1420 Multilabel Counter VICTOR3TM (Perkin Elmer, Waltham, MA, USA). A water sample was used as a reference control, growth medium without bacteria was used as a negative control and dilution series of gentamycin (A2712, Merck, Darmstadt, DE) from 32 to 0.01 µg/mL was used as positive control and visually inspected for bacterial growth. The positive control was used as a system suitability test and the results of the antimicrobial assay were only considered valid when positive control was passed. The final concentration of DMSO in the assays was ≤2% (v/v) and was known to have no effect in the tested bacteria. The data was processed using GraphPad Prism 8.

[8] = tested on: E. faecalis (ATCC 29122); experiment: Bacterial growth inhibition assay; assay type: cell-based, Enterococcus faecialis; details: Enterococcus faecalis, ATCC29122
Experimental: as §4, §5

[9] = tested on: S. epidermis (ATCC 35984); experiment: Biofilm formation inhibition assay; assay type: cell-based, Staphylococcus epidermidis; details: inhibition of biofilm formation
Experimental: as §4
For testing the inhibition of biofilm formation, the biofilm-producing Staphylococcus epidermidis (ATCC 35984) was grown in Tryptic Soy Broth (TSB, 105459, Merck, Kenilworth, NJ, USA) overnight at 37 °C. The overnight culture was diluted in fresh medium with 1% glucose (D9434, Sigma) before being transferred to a 96-well microtiter plate; 50 µL/well were incubated overnight with 50 µL of the test compound dissolved in 2% (v/v) DMSO aq. added in duplicates. The bacterial culture was removed from the plate and the plate was washed with tap water. The biofilm was fixed at 65 °C for 1 h before 70 µL 0.1% crystal violet (115940, Millipore, Burlington, MA, USA) was added to the wells for 10 min of incubation and 70 µL of 70% ethanol was then added to each well and the plate incubated on a shaker for 5–10 min. Biofilm formation inhibition was assessed by the presence of violet color and measured at […] absorbance using a 1420 Multilabel Counter VICTOR3TM; 50 µL of a non-biofilm forming Staphylococcus haemolyticus (clinical isolate 8-7A, University Hospital of North Norway Tromsø, Norway) mixed in 50 µL autoclaved Milli-Q water was used as a control; 50 µL S. epidermidis mixed in 50 µL autoclaved Milli-Q water was used as the control for biofilm formation; and 50 µL TSB with 50 µL autoclaved Milli-Q water was used as a medium blank control.

[10] = tested on: HCT116, MDA-MB-231 and PC-3; experiment: Antiproliferative assay, whole panel of cancer cell lines; assay type: cell-based, human
Experimental: as §3

[11] = tested on: Streptococcus agalactiae (ATCC 12386); experiment: Bacterial growth inhibition assay; assay type: cell-based; details: ATCC12386
Experimental: as §4, §5

[12] = HEK293 cells versus Plasmodium falciparum 3D7 culture, HEK293 vs 3D7, read-out: SI (selectivity index = cytotoxicity in HEK293/activity in 3D7)

Structure (SMILES)	melting point	IC50 at 72 h [1]	selectivity ratio at 72 h [2, 12]	IC50 [3]	IC50 [4]	IC50 [5]	IC50 [6]	also measured
C[n+]1cccc2c3c(ccc21)[nH]c1ccccc13 (as salt: hydroiodid) [Compound 10, 4-Methyl-7H-pyrido[2,3-c]carbazolium Iodide]	284 to 286 °C							
C[n+]1cccc2c3[nH]c4ccccc4c3ccc21 (as salt: hydroiodid) [Compound 21, 4-Methyl-11H-pyrido[3,2-a]carbazolium Iodide]	279 to 280 °C							
CCN(CC)CCCC(C)Nc1ccnc2cc(Cl)ccc12 (stereo not drawn) [Chloroquine, chloroquine, reference compound]		> 4000 nM						
CCn1cc2c3ccccc3nc-2c2ccccc21 [Compound 3b, 5-Ethyl-5H-indolo[3,2-c]quinoline]	198 °C	3080 ± 49 nM	2.3	1318 ± 5 nM	998 ± 300 nM	742 ± 11 nM	2440 ± 94 nM	
C=CCn1cc2c3ccccc3nc-2c2ccccc21 [Compound 3c, 5-Allyl-5H-indolo[3,2-c]quinoline]		3150 ± 40 nM	2.6	1200 ± 32 nM	3060 ± 467 nM	1240 ± 80 nM	1300 ± 51 nM	
c1ccc2c(c1)Nc1ccnc3cccc-2c13 [Compound 4a, 7H-pyrido[4,3,2-gh]phenanthridine]		2830 ± 92 nM	5.2	548 ± 3 nM	594 ± 140 nM	721 ± 27 nM	1630 ± 173 nM	MIC [7]: 100 µM (≈ 21.8 µg/mL); MIC [8]: 100 µM (≈ 21.8 µg/mL)
CN1C=Cc2nc3ccccc3c3cccc1c23 [Compound 8a, 4-Methyl-4H-pyrido[4,3,2-gh]phenanthridine]	182 to 183 °C	7410 ± 207 nM	4.4	1698 ± 5 nM	360 ± 51 nM	444 ± 52 nM	2570 ± 114 nM	MIC [7]: 75 µM (≈ 17.4 µg/mL); MIC [8]: 75 µM (≈ 17.4 µg/mL)
Fc1ccc2[nH]c3ccc4ncccc4c3c2c1 [Compound 9b, 10-Fluoro-7H-pyrido[2,3-c]carbazole]	256 to 257 °C							MBIC [9]: 100 µM
C[n+]1cccc2c3c(ccc21)[nH]c1ccccc13 [Compound 10, 4-Methyl-7H-pyrido[2,3-c]carbazolium Iodide]			214	128 ± 2 nM				activity against the panel of cancer cell lines [10]: no activity; % at 40 µM (printed in MDA-MB-231 IC50 column) ([4]; MDA-MB-231, 40 µM): 24% at 40 µM; % at 40 µM (printed in HCT116 IC50 column) ([5]; HCT116, 40 µM): 38% at 40 µM; % at 40 µM (PC-3) [6]: 36% at 40 µM
c1ccc2nc3[nH]c4ccccc4c3cc2c1 [Compound 13, 6H-Indolo[2,3-b]quinoline]								3D7 IC50 [3]: no antiplasmodial inhibition; activity against the panel of cancer cell lines [10]: inactive
c1ccc2c(c1)ncc1c3ccccc3[nH]c21 [Compound 14, 11H-indolo[3,2-c]quinoline]		18460 ± 183 nM	18.9	977 ± 11 nM		3570 ± 309 nM		activity against the panel of cancer cell lines [10]: poor activity; % at 80 µM (printed in MDA-MB-231 IC50 column) [4]: 36% at 80 µM ^e; % at 80 µM (PC-3) [6]: 30% at 80 µM ^f
c1ccc2c(c1)[nH]c1c3cccnc3ccc21 [Compound 16, 11H-pyrido[3,2-a] carbazole]								3D7 IC50 ([3]; listed as 15): little to no activity; % at 80 µM (printed in MDA-MB-231 IC50 column) [4]: 80% at 80 µM; % at 80 µM (printed in HCT116 IC50 column) ([5]; HCT116, 80 µM): 82% at 80 µM
c1cnc2c(c1)ccc1c3ccccc3[nH]c12 [Compound 18, 11H-Pyrido[2,3-a]carbazole]	164 °C							
c1cnc2c(c1)ccc1[nH]c3ccccc3c12 [Compound 20, 7H-Pyrido[3,2-c]carbazole]				2410 ± 42 nM	16400 nM	17000 nM		% at 40 µM (PC-3) [6]: 47% at 40 µM
C[n+]1cccc2c3[nH]c4ccccc4c3ccc21 [Compound 21, 4-Methyl-11H-pyrido[3,2-a]carbazolium Iodide]				380 ± 0.5 nM				activity against the panel of cancer cell lines [10]: no activity
C[C@H]1[C@@H](O)O[C@@H]2O[C@@]3(C)CC[C@H]4[C@H](C)CC[C@@H]1[C@@]24OO3 [DHA, dihydroartemisinin, reference compound]			74	1 ± 0.07 nM				
COc1cccc2c1C(=O)c1c(O)c3c(c(O)c1C2=O)C[C@@](O)(C(=O)CO)C[C@@H]3O[C@H]1C[C@H](N)[C@H](O)[C@H](C)O1 [Doxorubicin, reference compound]					590 nM	150 nM	830 nM	
Cn1c2nc3ccccc3c-2cc2ccccc21 [Neocryptolepine (2), Neocryptolepine]		> 20000 nM	> 2.8	7249 ± 6 nM	10400 nM	6220 ± 90 nM		MIC [11]: 100 µM (≈ 23.2 µg/mL); % at 80 µM (PC-3) [6]: 27% at 80 µM
COc1ccc(C[C@H](N)C(=O)N[C@H]2[C@@H](O)[C@H](n3cnc4c(N(C)C)ncnc43)O[C@@H]2CO)cc1 [Puromycin, puromycin, reference compound]		3 ± 3 nM		93 ± 2 nM	300 nM	85 nM	270 nM	selectivity ratio at 72 h [2]: 0.03
